Reference: patent US20210230203A1, “Amphiphilic Kanamycin Compositions and Methods” (priority 2020, published 2021)
In brackets after ≈: the same amount, converted by molar mass. Read-outs that look alike come from different tables or passages of the source.

Experiments:
[1] = tested on: Candida guillermondii; assay: MIC against yeast, CLSI M27 & M38 (Table 2); conditions: Candida
[2] = tested on: C. krusei; assay: MIC against various species, CLSI M27 & M38 (Table 4); conditions: Pichia kudriavzevii, ATCC6258, read-out: Minimum inhibitory concentration 50%
[3] = tested on: Candida parapsilosis; assay: MIC against yeast, CLSI M27 & M38 (Table 2); conditions: for Minimum inhibitory concentration 50%: Table 2, RPMI 0.165M MOPS, 24-72 hours; for MIC: Lodderomyces parapsilosis
[4] = tested on: C. auris; assay: MIC against various species, CLSI M27 & M38 (Table 4); conditions: Candidozyma auris
[5] = tested on: C. albicans; assay: as above; conditions: Candida albicans
[6] = tested on: Cryptococcus neoformans; assay: MIC against yeast, CLSI M27 & M38 (Table 2); conditions: Cryptococcus neoformans
[7] = tested on: Candida auris; assay: MIC against yeast, CLSI M27 & M38 (Table 2); conditions: Candidozyma auris
[8] = tested on: C. krusei; assay: MIC against yeast, CLSI M27 & M38 (Table 2); conditions: Pichia kudriavzevii, ATCC6258, read-out: Minimum inhibitory concentration 50%
[9] = tested on: Candida glabrata; assay: MIC against yeast, CLSI M27 & M38 (Table 2); conditions: Nakaseomyces glabratus
[10] = tested on: C. parapsilosis; assay: MIC against various species, CLSI M27 & M38 (Table 4); conditions: Lodderomyces parapsilosis, ATCC22019, read-out: Minimum inhibitory concentration 50%
[11] = tested on: Fusarium; assay: as above; assay type: cell-based; conditions: 24-72 hours
[12] = tested on: Scedosporium; assay: as above; conditions: Scedosporium
[13] = tested on: B. dermatitidis; assay: MIC against various B. dermatitidis isolates, CLSI M27 & M38; conditions: Blastomyces dermatitidis, RPMI 0.165M MOPS, 24-72 hours
[14] = tested on: Candida albicans MYA2876; assay: MIC against fungal strains (Table 1); assay type: cell-based; conditions: Candida albicans, MYA2876, read-out: Minimum inhibitory concentration
[15] = tested on: Cryptococcus neoformans H99; assay: MIC against fungal strains (Table 1); assay type: cell-based; conditions: Cryptococcus neoformans, H99, read-out: Minimum inhibitory concentration
[16] = tested on: Histoplasma capsulatum; assay: microbe, parasite or virus in culture; assay type: cell-based; conditions: Histoplasma capsulatum, Table 3, RPMI 0.165M MOPS, 24-72 hours
[17] = tested on: P. variotil; assay: MIC against various species, CLSI M27 & M38 (Table 4); assay type: cell-based, Paecilomyces variotii; conditions: Paecilomyces variotii, P. variotil QC, RPMI 0.165M MOPS, 24-72 hours, read-out: Minimum inhibitory concentration 100%
[18] = tested on: P. variatii; assay: MIC against filamentous and dimorphic fungi, CLSI M27 & M38 (Table 3); assay type: cell-based, Paecilomyces variotii; conditions: Paecilomyces variotii, P. variatii MYA-3630, RPMI 0.165M MOPS, 24-72 hours, read-out: Minimum inhibitory concentration 100%
[19] = tested on: L. prolificans; assay: MIC against various species, CLSI M27 & M38 (Table 4); conditions: Lomentospora prolificans, read-out: Minimum inhibitory concentration 100%
[20] = tested on: Candida albicans 64124; assay: MIC against fungal strains (Table 1); assay type: cell-based; conditions: read-out: Minimum inhibitory concentration
[21] = tested on: Coccidioldes sp.; assay: microbe, parasite or virus in culture; assay type: cell-based, Coccidioides species; conditions: Coccidioides, Table 3, RPMI 0.165M MOPS, 24-72 hours
[22] = tested on: Rhodotorula pilimanae; assay: MIC against fungal strains (Table 1); assay type: cell-based; conditions: Rhodotorula mucilaginosa, read-out: Minimum inhibitory concentration
[23] = tested on: A. furnigatus; assay: MIC against various species, CLSI M27 & M38 (Table 4); conditions: Aspergillus fumigatus
[24] = tested on: Fusarium graminearum B4-5A; assay: microbe, parasite or virus in culture; assay type: cell-based; conditions: Fusarium graminearum, B45A, read-out: Minimum inhibitory concentration

Q: For `OC(Cn1cncn1)(Cn1cncn1)c1ccc(F)cc1F` [Fluconazole, reference compound], which MIC ([1]; read-out: Minimum inhibitory concentration 50%, Candida guillermondii CGUI1, RPMI 0.165M MOPS, 24-72 hours) is on record?
A: 1 µg/mL (≈ 3.27 µM)

Q: What about the MIC ([1]; read-out: Minimum inhibitory concentration 50%, Candida guillermondii CGUI2, RPMI 0.165M MOPS, 24-72 hours) of the same compound?
A: 2 µg/mL (≈ 6.53 µM)

Q: And the MIC ([1]; read-out: Minimum inhibitory concentration 50%, Candida guillermondii CGUI3, RPMI 0.165M MOPS, 24-72 hours)?
A: 2 µg/mL (≈ 6.53 µM)

Q: And the MIC [2]?
A: > 16 µg/mL

Q: And the “Minimum inhibitory concentration 50%” value ([3]; Candida parapsilosis CP2)?
A: 0.5 µg/mL (≈ 1.63 µM)

Q: And the “Minimum inhibitory concentration 50%” value ([3]; Candida parapsilosis CP3)?
A: 0.5 µg/mL (≈ 1.63 µM)

Q: What about the MIC ([3]; ATCC22019, read-out: Minimum inhibitory concentration 50%) of the same compound?
A: 1 µg/mL (≈ 3.27 µM)

Q: What about the MIC ([3]; read-out: Minimum inhibitory concentration 50%) of the same compound?
A: 0.5 µg/mL (≈ 1.63 µM)

Q: And the MIC ([4]; read-out: Minimum inhibitory concentration 50%, C. auris DI17-46, RPMI 0.165M MOPS, 24-72 hours)?
A: > 64 µg/mL

Q: And the MIC ([4]; read-out: Minimum inhibitory concentration 50%, C. auris DI17-47, RPMI 0.165M MOPS, 24-72 hours)?
A: > 64 µg/mL

Q: And the MIC ([4]; read-out: Minimum inhibitory concentration 50%, C. auris DI17-48, RPMI 0.165M MOPS, 24-72 hours)?
A: 2 µg/mL (≈ 6.53 µM)

Q: What about the MIC ([5]; read-out: Minimum inhibitory concentration 50%, C. albicans CA1, RPMI 0.165M MOPS, 24-72 hours) of the same compound?
A: ≤ 0.125 µg/mL

Q: What about the MIC ([5]; read-out: Minimum inhibitory concentration 50%, C. albicans CA2, RPMI 0.165M MOPS, 24-72 hours) of the same compound?
A: ≤ 0.125 µg/mL

Q: And the MIC ([5]; read-out: Minimum inhibitory concentration 50%, C. albicans CA3, RPMI 0.165M MOPS, 24-72 hours)?
A: > 64 µg/mL

Q: And the MIC ([6]; read-out: Minimum inhibitory concentration 50%, Cryptococcus neoformans CN1, RPMI 0.165M MOPS, 24-72 hours)?
A: 8 µg/mL (≈ 26.1 µM)

Q: What about the MIC ([6]; read-out: Minimum inhibitory concentration 50%, Cryptococcus neoformans H99, RPMI 0.165M MOPS, 24-72 hours) of the same compound?
A: 16 µg/mL (≈ 52.2 µM)

Q: And the MIC ([6]; read-out: Minimum inhibitory concentration 50%, Cryptococcus neoformans USC1597, RPMI 0.165M MOPS, 24-72 hours)?
A: 2 µg/mL (≈ 6.53 µM)

Q: What about the MIC ([7]; read-out: Minimum inhibitory concentration 50%, Candida auris CAU1, RPMI 0.165M MOPS, 24-72 hours) of the same compound?
A: 2 µg/mL (≈ 6.53 µM)

Q: And the MIC ([7]; read-out: Minimum inhibitory concentration 50%, Candida auris CAU2, RPMI 0.165M MOPS, 24-72 hours)?
A: 1 µg/mL (≈ 3.27 µM)

Q: What about the MIC ([7]; read-out: Minimum inhibitory concentration 50%, Candida auris CAU3, RPMI 0.165M MOPS, 24-72 hours) of the same compound?
A: 0.5 µg/mL (≈ 1.63 µM)

Q: And the MIC ([7]; read-out: Minimum inhibitory concentration 50%, Candida auris CAU4, RPMI 0.165M MOPS, 24-72 hours)?
A: > 64 µg/mL

Q: What about the MIC ([7]; read-out: Minimum inhibitory concentration 50%, Candida auris CAU5, RPMI 0.165M MOPS, 24-72 hours) of the same compound?
A: 16 µg/mL (≈ 52.2 µM)

Q: And the MIC ([7]; read-out: Minimum inhibitory concentration 50%, Candida auris CAU6, RPMI 0.165M MOPS, 24-72 hours)?
A: 2 µg/mL (≈ 6.53 µM)

Q: What about the MIC ([7]; read-out: Minimum inhibitory concentration 50%, Candida auris CAU7, RPMI 0.165M MOPS, 24-72 hours) of the same compound?
A: 2 µg/mL (≈ 6.53 µM)

Q: And the MIC ([7]; read-out: Minimum inhibitory concentration 50%, Candida auris DI17-46, RPMI 0.165M MOPS, 24-72 hours)?
A: > 64 µg/mL

Q: What about the MIC ([7]; read-out: Minimum inhibitory concentration 50%, Candida auris DI17-47, RPMI 0.165M MOPS, 24-72 hours) of the same compound?
A: > 64 µg/mL

Q: What about the MIC ([7]; read-out: Minimum inhibitory concentration 50%, Candida auris DI17-48, RPMI 0.165M MOPS, 24-72 hours) of the same compound?
A: 2 µg/mL (≈ 6.53 µM)

Q: And the MIC [8]?
A: 16 µg/mL (≈ 52.2 µM)

Q: And the MIC ([9]; read-out: Minimum inhibitory concentration 50%, Candida glabrata CG1, RPMI 0.165M MOPS, 24-72 hours)?
A: > 64 µg/mL

Q: And the MIC ([9]; read-out: Minimum inhibitory concentration 50%, Candida glabrata CG2, RPMI 0.165M MOPS, 24-72 hours)?
A: 8 µg/mL (≈ 26.1 µM)

Q: And the MIC ([9]; read-out: Minimum inhibitory concentration 50%, Candida glabrata CG3, RPMI 0.165M MOPS, 24-72 hours)?
A: 64 µg/mL (≈ 209 µM)

Q: What about the MIC [10] of the same compound?
A: 1 µg/mL (≈ 3.27 µM)

Q: What does the source list for `C[C@@H](c1ncncc1F)[C@](O)(Cn1cncn1)c1ccc(F)cc1F` [Voriconazole, reference compound]?
A: MIC ([11]; Fusarium FO1, RPMI 0.165M MOPS, read-out: Minimum inhibitory concentration 100%): > 16 µg/mL; Minimum inhibitory concentration 100% ([11]; Fusarium FO2, RPMI 0.165M MOPS): >16 µg/mL; Minimum inhibitory concentration 100% ([11]; Fusarium FS1, RPMI 0.165M MOPS): >16 µg/mL; MIC ([12]; read-out: Minimum inhibitory concentration 100%, Scedosporium SA1, RPMI 0.165M MOPS, 24-72 hours): 1 µg/mL (≈ 2.86 µM); MIC ([12]; read-out: Minimum inhibitory concentration 100%, Scedosporium SB1, RPMI 0.165M MOPS, 24-72 hours): 2 µg/mL (≈ 5.73 µM); MIC ([13]; read-out: Minimum inhibitory concentration 100%, B. dermatitidis BD1): 0.06 µg/mL (≈ 0.172 µM); MIC ([13]; read-out: Minimum inhibitory concentration 100%, B. dermatitidis BD2): ≤ 0.03 µg/mL; MIC ([13]; read-out: Minimum inhibitory concentration 100%, B. dermatitidis BD3): 0.125 µg/mL (≈ 0.358 µM); MIC [14]: 0.125 µg/mL (≈ 0.358 µM); MIC [15]: 0.125 µg/mL (≈ 0.358 µM); MIC ([16]; read-out: Minimum inhibitory concentration 100%, Histoplasma capsulatum HC1): 0.125 µg/mL (≈ 0.358 µM); MIC ([16]; read-out: Minimum inhibitory concentration 100%, Histoplasma capsulatum HC2): ≤ 0.03 µg/mL; MIC ([16]; read-out: Minimum inhibitory concentration 100%, Histoplasma capsulatum HC3): ≤ 0.03 µg/mL; MIC [17]: 0.125 µg/mL (≈ 0.358 µM); MIC [18]: 0.125 µg/mL (≈ 0.358 µM); MIC [19]: > 16 µg/mL; MIC [20]: > 256 µg/mL; MIC ([21]; read-out: Minimum inhibitory concentration 100%, Coccidioldes sp. Cocci1): 0.25 µg/mL (≈ 0.716 µM); MIC ([21]; read-out: Minimum inhibitory concentration 100%, Coccidioldes sp. Cocci2): 2 µg/mL (≈ 5.73 µM); MIC ([21]; read-out: Minimum inhibitory concentration 100%, Coccidioldes sp. DI17-143): 0.125 µg/mL (≈ 0.358 µM); MIC [22]: 8 µg/mL (≈ 22.9 µM); MIC ([23]; read-out: Minimum inhibitory concentration 100%, A. furnigatus AF1, RPMI 0.165M MOPS, 24-72 hours): 1 µg/mL (≈ 2.86 µM); MIC ([23]; read-out: Minimum inhibitory concentration 100%, A. furnigatus AF2, RPMI 0.165M MOPS, 24-72 hours): 8 µg/mL (≈ 22.9 µM); MIC ([23]; read-out: Minimum inhibitory concentration 100%, A. furnigatus AF3, RPMI 0.165M MOPS, 24-72 hours): 4 µg/mL (≈ 11.5 µM); MIC [24]: 32 µg/mL (≈ 91.6 µM)
